The nature of data set [1]: IV/PO pharmacokinetic study of Compound 1 in monkeys. In kind it is in vivo. To be noted: male, cynomolgus monkey, plasma, 1 mg/kg; for AUC(0-t): read-out: AUClast Mean. The method, then: A monkey PK study was performed with an appropriate mass of compound 1 in volume of vehicle (e.g., 5% sodium bicarbonate, 5% dextrose in H2O, pH 7.4, for oral and PEG200:EtOH:Water (40:10:50), pH 7.0, filtered through a […] PDVF syringe for IV) such that the final concentration was dosed at 0.5 mL/kg (IV) or 2.0 mL/kg (PO).
Male cynomologus monkeys (3 per route) housed at Xenometrics (Stilwell, Kans.) received an IV or PO dose of compound 1 at 1 mg/kg. Animals administered IV doses had access to food ad libitum and those administered PO doses were fasted overnight and received food approximately 4 hours after dose administration. Blood samples were collected from each animal at each time point (pre-dose, 0.083 hour, 0.25 hour, 0.5 hour, 1 hour, 2 hours, 4 hours, 6 hours, 8 hours, 12 hours, and 24 hours) via the cephalic, femoral, or sphenous vein through 48 hours. All samples were collected into K2EDTA tubes and placed on ice. Samples were processed to plasma by centrifugation (3200 rpm, 10 minutes, 5° C.), and acidified with a final concentration of 2% acetic acid. Aliquots of plasma were transferred to a 96-well plate tubes and stored frozen (−70° C.) prior to bioanalysis. Plasma concentrations of compound 1 were determined by LC/MS/MS. Plasma study samples were vortexed and placed in a 96-well plate. The samples were extracted with 200 μL of 0.2% formic acid in acetonitrile with an internal standard. The extract was centrifuged for 10 minutes at 3700 RPM and supernatant was mixed with 0.2% formic acid in water. Samples (15 μL) were injected on a Thermo (C18 50×2.1 mm) column with a flow rate of 0.3 mL/min. […] Pharmacokinetic parameters of compound 1 were determined by non-compartmental analysis (Model 201 and Model 200 for IV and PO administration, respectively) using Phoenix WinNonlin Version 6.3 (Certara, Sunnyvale, Calif.) and using individual plasma concentration time profiles from 3 animals.
Plasma clearance was determined from the intravenous arm of the study, and represents the rate at which plasma is cleared of drug. […]

Data set [2] is described as follows: Renal excretion of Compound 1 in monkey. In kind it is in vivo, male cynomolgus monkeys. To be noted: IV 1 mg/kg. How it is done: An important factor for insuring appropriate long term drug dosing and correct steady-state drug concentrations in patients is drug clearance. In general, decreased drug clearance results in higher drug concentrations and greater drug effects. In order to understand renal clearance of Compound 1, the percent of administered dose recovered in urine following a single IV dose was assessed in three animal species. Three separate studies in male Sprague Dawley rats, male beagle dogs and male cynomolgus monkeys, respectively, were conducted and the procedure and experimental results are described below.
Male cynomolgus monkeys (N=3), having body weights of 4.42-5.81 kg, received an IV dose of compound 1 at 1 mg/kg. Compound 1 was dissolved in PEG-200:ethanol:water (40:10:50) and filtered through a […] polyvinyl difluoride (PVDF) syringe filter prior to administration. The monkeys had access to food ad libitum before and after administration of Compound 1. Urine samples were collected on dry ice during the collection interval periods, the sample volumes were recorded, and the urine acidified with acetic acid to a final concentration of approximately 2% acetic acid. Aliquots were obtained and frozen (−70° C.) prior to bioanalysis.
Monkey urine concentrations of Compound 1 were determined by LC/MS/MS. Urine samples were thawed and diluted in plasma K2EDTA (1:4). […]

Each structure is given as a SMILES string. Like-named read-outs stand apart in the source and are kept apart here.

Consider `Cc1cnc(C(=O)N[C@H](Cc2ccc(-c3cc(Cl)ccc3F)cc2)C[C@@H](O)C(=O)O)o1` [Compound 1, (2R,4R)-5-(5′-Chloro-2′-fluorobiphenyl-4-yl)-2-hydroxy-4-[(5-methyloxazole-2-carbonyl)amino]pentanoic Acid], for which the AUC(0-t) was found to be 2780 ng·h/mL in data set [1] (IV) and 1660 ng·h/mL in data set [1] (PO). Further, the bioavailability in data set [1] (oral, PO vs IV) is ~60%. For the same compound, in data set [2], the “Amount of Compound 1 Excreted in Urine over Collection Period (0-24 hrs) Mean” value was determined as 157 µg.

The values above are taken from patent US11642332B2, “(2R,4R)-5-(5′-chloro-2′-fluorobiphenyl-4-yl)-2-hydroxy-4-[(5-methyloxazole-2-carbonyl)amino]pentanoic acid” (THERAVANCE BIOPHARMA R&D IP, LLC, priority 2015, dated 2023).
